Test results from US6492416B1, “4,5-diaryl-3(2H)-furanone derivatives as cyclooxygenase-2 inhibitors” (Pacific Corporation, priority 1999, dated 2002).

Tested on: male SD rat
Assay: Gastric safety studies (Ulcer Index)
Format: in vivo
Details: daily dose 30 mg/kg body weight oral for 7 days, mean of animals' scores
Method: Gastric safety for compounds of this invention was evaluated as follows [Otterness et al., Laboratory Models for Testing Nonsteroidal Anti-inflammatory Drugs in Nonsteroidal Anti-inflammatory Drugs; ed John Wiley & Sons pp 217-227 (1985); Wiley Interscience; New York]: A designated dose of a compound of this invention suspended in 1% methylcellulose solution was administered daily once for 7 days to a male SD rat by oral gavage. The animal was sacrificed and the inner wall of the stomach was examined visually 4 hours after the last administration (the 7th day administration). The gastric safety was assessed by the “Ulcer Index” as defined as the following scores: […]
Score 1: apparently normal stomach.
Score 2: one or more than one ulcer site of pin-point size only.
Score 3: erosions of 2 or fewer than 2, which may be accompanied by ulcers of pin-point size (an erosion is defied by any ulcerative lesion of any dimension greater than 1 mm).
Score 4: erosions more than 2, which may be accompanied by ulcers of pin-point size.
Score 5: erosions accompanied by hemorrhage.
In evaluating the gastric safety of a compound of this invention, usually 8 animals were used. The ulcer index for a compound was calculated by averaging of the ulcer index of each animal. The following Table 5 illustrates gastric safety of some COX-2 selective inhibitors of this invention.

CC1(C)OC(c2ccc(S(C)(=O)=O)cc2)=C(c2cc(F)cc(F)c2)C1=O [Example 11, 4-(3,5-Difluorophenyl)-2,2-dimethyl-5-{4-(methylsulfonyl)phenyl}-3(2H)-furanone] was tested, and the “Ulcer Index (1˜5)” value was 1.8 ± 1.0.
CC1(C)OC(c2ccc(S(C)(=O)=O)cc2)=C(c2cccc(F)c2)C1=O [Example 4, 2,2-Dimethyl-4-(3-fluorophenyl)-5-{4-(methylsulfonyl)phenyl}-3(2H)-furanone] was tested, and the “Ulcer Index (1˜5)” value was 1.8 ± 0.7.
